The nature of test [1]: Binding affinity to full length STAT3alpha by fluorescence polarization assay.
For test [2], the target named is T1, Signal transducer and activator of transcription 3 (Homo sapiens, UniProt P40763). Briefly: Inhibition of STAT3 in human MDA-MB-435 cells at 20 uM after 48 hrs by luciferase reporter gene assay relative to untreated control. It counts as cell-based.
Test [3] deals with T2, Signal transducer and activator of transcription 3 (Mus musculus, UniProt P42227). Nature of the test: Inhibition of STAT3 dimerization in v-Src transformed mouse NIH/3T3 cells overexpressing human EGFR assessed as suppression of STAT3-DNA interaction in nucleus after 30 mins by EMSA. The class given is cell-based, NIH3T3.
The target of test [4] is T3, Signal transducer and activator of transcription 1-alpha/beta (Homo sapiens, UniProt P42224).
T3 sequence (P42224 whole entry): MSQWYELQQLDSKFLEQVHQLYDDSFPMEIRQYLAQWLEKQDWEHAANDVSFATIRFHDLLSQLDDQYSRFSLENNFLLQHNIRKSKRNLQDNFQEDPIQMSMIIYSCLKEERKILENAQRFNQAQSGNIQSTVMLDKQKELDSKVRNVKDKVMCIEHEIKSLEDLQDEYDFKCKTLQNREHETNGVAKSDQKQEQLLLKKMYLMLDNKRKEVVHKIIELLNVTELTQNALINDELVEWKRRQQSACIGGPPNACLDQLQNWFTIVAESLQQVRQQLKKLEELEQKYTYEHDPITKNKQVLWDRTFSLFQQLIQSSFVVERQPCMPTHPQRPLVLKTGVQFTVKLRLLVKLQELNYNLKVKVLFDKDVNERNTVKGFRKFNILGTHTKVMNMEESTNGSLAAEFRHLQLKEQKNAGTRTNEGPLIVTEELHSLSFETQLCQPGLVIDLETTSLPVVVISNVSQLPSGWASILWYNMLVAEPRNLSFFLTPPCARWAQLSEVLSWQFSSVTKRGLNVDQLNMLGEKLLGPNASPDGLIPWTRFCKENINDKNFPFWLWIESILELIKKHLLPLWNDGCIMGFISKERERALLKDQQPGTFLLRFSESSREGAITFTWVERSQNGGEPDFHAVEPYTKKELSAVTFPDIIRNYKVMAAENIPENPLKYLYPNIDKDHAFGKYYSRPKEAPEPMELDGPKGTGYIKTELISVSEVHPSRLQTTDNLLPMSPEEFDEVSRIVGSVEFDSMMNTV
Briefly: Inhibition of STAT1 SH2 domain assessed as inhibition of STAT1 SH2-phosphotyrosine interaction by AlphaScreen assay.

For test [5], the target named is T1, Signal transducer and activator of transcription 3. Briefly: Inhibition of STAT3 SH2 domain assessed as inhibition of STAT3 SH2-phosphotyrosine interaction by AlphaScreen assay.
Test [6] can be described thus: Cytotoxicity against HPDEC without constitutively active STAT3 after 24 to 144 hrs by trypan blue-staining based phase contrast microscopy. Conditions: Homo sapiens.
For a further test, the system named is PANC-1. Briefly: Cytotoxicity against human PANC1 cells harboring constitutively active STAT3 after 24 to 144 hrs by trypan blue-staining based phase contrast microscopy. It counts as functional, cell-based.
In test [7] the target is T3, Signal transducer and activator of transcription 1-alpha/beta. Briefly: Inhibition of STAT1 SH2 domain by fluorescence polarization assay.
Test [8] has as its target T2, Signal transducer and activator of transcription 3. Nature of the test: Binding affinity to STAT3 SH2 in v-Src transformed mouse NIH/3T3 cells overexpressing human EGFR. The class given is cell-based, NIH3T3.
Test [9] is described as follows: Cytotoxicity against mouse TE71 without constitutively active STAT3 after 24 to 144 hrs by trypan blue-staining based phase contrast microscopy.
Another test deals with NIH3T3. Nature of the test: Cytotoxicity against mouse NIH/3T3 cells without constitutively active STAT3 after 24 to 144 hrs by trypan blue-staining based phase contrast microscopy. The class given is cell-based.
The subject of another test is MDA-MB-231. Briefly: Cytotoxicity against human MDA-MB-231 cells harboring constitutively active STAT3 after 24 to 144 hrs by trypan blue-staining based phase contrast microscopy. It counts as functional, cell-based.
Test [10] addresses T1, Signal transducer and activator of transcription 3. Nature of the test: Inhibition of STAT3 expressed in human U3A cells after 1 hr by luciferase reporter gene assay. It counts as cell-based.
Test [11] has the same target. Nature of the test: Inhibition of STAT3 SH2 domain using 5-carboxyfluorescein-GY(PO3H2)LPQTV-NH2 as substrate preincubated for 60 mins prior to substrate addition by fluorescence polarization assay.
Test [12] concerns the target Tyrosine-protein kinase JAK2 (Homo sapiens) (UniProt O60674). The settings on record: at 5 µM.
Description: Inhibition of JAK2 at 5 uM by high throughput assay
Test [13] addresses T1, Signal transducer and activator of transcription 3. Nature of the test: Inhibition of recombinant STAT3 assessed as inhibition of STAT3-phosphododecapeptide interaction by SPR analysis.
For test [14] the target is unchanged. Briefly: Inhibition of IL6-mediated STAT3 phosphorylation in human HepG2 cells preincubated for 1 hr prior to IL6 challenge measured after 30 mins by immunoblot analysis. The class given is cell-based.
A short description of test [15]: Cytotoxicity against human SNU182 cells with impaired TGFbeta pathway assessed as growth inhibition at 250 uM after 72 hrs by MTT assay. Conditions: SNU-182. The class given is functional, cell-based.
The next test deals with SNU-398. Briefly: Cytotoxicity against human SNU398 cells with impaired TGFbeta pathway assessed as growth inhibition at 250 uM after 72 hrs by MTT assay. It counts as functional. The settings on record: SNU-398, 72 h, read-out: GI.
For another test, the system named is Huh-7. Briefly: Cytotoxicity against human HuH7 cells with impaired TGFbeta pathway assessed as growth inhibition at 250 uM after 72 hrs by MTT assay. It counts as functional. The settings on record: Huh-7, 72 h, read-out: GI.
A further test concerns SNU-449. Nature of the test: Cytotoxicity against human SNU449 cells with intact TGFbeta pathway assessed as growth inhibition at 250 uM after 72 hrs by MTT assay. The class given is functional. The settings on record: SNU-449, 72 h, read-out: GI.
The next test has as its system HepG2. Nature of the test: Cytotoxicity against human HepG2 cells with intact TGFbeta pathway assessed as growth inhibition at 250 uM after 72 hrs by MTT assay. It counts as functional. Conditions: HepG2, 72 h, read-out: GI.
Test [16] in a line: Cytotoxicity against human PLC/PRF/5 cells with intact TGFbeta pathway assessed as growth inhibition at 250 uM after 72 hrs by MTT assay. It counts as functional, cell-based.
The test system of another test is SNU-475. Nature of the test: Cytotoxicity against human SNU475 cells with impaired TGFbeta pathway assessed as growth inhibition at 250 uM after 72 hrs by MTT assay. It counts as functional. Conditions: SNU-475, 72 h, read-out: GI.
Test [17] addresses T1, Signal transducer and activator of transcription 3. Briefly: Inhibition of STAT3 SH2 domain assessed as inhibition of STAT3 SH2-phosphotyrosine interaction after 15 mins by fluorescence polarization assay.

Structures are written as SMILES. pEC50, pIC50, pKd, pKi: −log10 of the molar value. Where a SMILES comes first, the peptide text is derived from it. [ ]: non-standard residue; d: D form. The star is where a group is joined. Pro(3S,4R-methano) = O=C(O)[C@H]1NC[C@@H]2C[C@@H]21; pY = N[C@@H](Cc1ccc(OP(=O)(O)O)cc1)C(=O)O; Hydrocinnamoyl = O=C(CCc1ccccc1)*; NHBn = c1ccc(CN*)cc1 A value given as a limit tells only on which side of the number the result lay.

T2 sequence (P42227 whole entry): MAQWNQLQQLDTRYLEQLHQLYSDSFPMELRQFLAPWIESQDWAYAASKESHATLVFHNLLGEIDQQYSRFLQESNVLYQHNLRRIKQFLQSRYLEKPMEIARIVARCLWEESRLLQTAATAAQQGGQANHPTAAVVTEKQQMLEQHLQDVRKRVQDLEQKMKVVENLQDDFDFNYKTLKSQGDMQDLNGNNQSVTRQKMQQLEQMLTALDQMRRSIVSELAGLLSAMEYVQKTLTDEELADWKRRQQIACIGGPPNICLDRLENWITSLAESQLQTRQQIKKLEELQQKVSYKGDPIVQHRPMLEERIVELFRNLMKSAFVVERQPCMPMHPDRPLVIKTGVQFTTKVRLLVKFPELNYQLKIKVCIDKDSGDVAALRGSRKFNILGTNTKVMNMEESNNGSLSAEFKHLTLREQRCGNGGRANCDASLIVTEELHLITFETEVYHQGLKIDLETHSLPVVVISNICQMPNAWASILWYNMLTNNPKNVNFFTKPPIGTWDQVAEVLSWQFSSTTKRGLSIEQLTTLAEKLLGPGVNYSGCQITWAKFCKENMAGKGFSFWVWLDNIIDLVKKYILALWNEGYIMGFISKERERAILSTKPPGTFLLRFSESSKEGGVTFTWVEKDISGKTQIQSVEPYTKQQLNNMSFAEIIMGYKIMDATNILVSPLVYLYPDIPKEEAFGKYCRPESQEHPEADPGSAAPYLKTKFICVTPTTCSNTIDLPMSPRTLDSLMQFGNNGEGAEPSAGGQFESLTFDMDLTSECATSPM
T1 sequence (P40763 whole entry): as the sequence (P42227 whole entry) above, with D760E counted along it
Sequence of Tyrosine-protein kinase JAK2 (Homo sapiens) (O60674 whole entry): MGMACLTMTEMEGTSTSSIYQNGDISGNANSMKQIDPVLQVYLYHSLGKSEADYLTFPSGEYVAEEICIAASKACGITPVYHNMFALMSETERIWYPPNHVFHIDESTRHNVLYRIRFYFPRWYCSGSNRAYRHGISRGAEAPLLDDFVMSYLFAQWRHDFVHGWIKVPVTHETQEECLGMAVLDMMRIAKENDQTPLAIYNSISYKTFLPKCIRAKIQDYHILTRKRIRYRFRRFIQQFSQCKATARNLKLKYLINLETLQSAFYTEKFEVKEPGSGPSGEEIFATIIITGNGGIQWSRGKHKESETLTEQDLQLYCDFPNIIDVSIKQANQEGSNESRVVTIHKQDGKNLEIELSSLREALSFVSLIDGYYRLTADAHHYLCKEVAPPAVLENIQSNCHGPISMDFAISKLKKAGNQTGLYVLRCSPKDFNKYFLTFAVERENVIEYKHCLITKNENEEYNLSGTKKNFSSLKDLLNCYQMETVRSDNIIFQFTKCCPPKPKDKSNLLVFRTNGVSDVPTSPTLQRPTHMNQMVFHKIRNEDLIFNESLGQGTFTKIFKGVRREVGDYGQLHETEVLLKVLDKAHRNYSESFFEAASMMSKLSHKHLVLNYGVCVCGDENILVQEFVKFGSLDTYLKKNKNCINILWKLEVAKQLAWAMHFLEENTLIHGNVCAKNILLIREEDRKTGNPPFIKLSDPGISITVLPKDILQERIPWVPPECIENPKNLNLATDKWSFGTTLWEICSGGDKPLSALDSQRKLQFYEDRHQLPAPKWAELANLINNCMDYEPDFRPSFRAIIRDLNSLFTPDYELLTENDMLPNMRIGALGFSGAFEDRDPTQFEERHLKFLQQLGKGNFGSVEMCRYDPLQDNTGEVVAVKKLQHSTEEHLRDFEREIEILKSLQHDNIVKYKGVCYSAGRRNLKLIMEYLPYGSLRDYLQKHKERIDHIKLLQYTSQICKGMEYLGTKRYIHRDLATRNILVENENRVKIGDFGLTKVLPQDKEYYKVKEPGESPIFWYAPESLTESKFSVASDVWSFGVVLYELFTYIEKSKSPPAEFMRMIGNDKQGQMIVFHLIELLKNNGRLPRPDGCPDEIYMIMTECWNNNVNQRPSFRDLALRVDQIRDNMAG

In [1], `CC(C)C[C@H](NC(=O)[C@H](Cc1ccc(OP(=O)(O)O)cc1)NC(=O)CCc1ccccc1)C(=O)N1C[C@@H]2C[C@@H]2[C@H]1C(=O)N[C@@H](CCC(N)=O)C(=O)NCc1ccccc1` (Hydrocinnamoyl-[pY]L[Pro(3S,4R-methano)]Q-NHBn) showed a pKi of 6.90.

In the case of `C[C@@H]1CC(=O)c2c(ccc3c2C(=O)c2cccc(O)c2C3=O)C1`, the fold change (FC) in test [2] is 5.

In the case of `COc1cccc(NC(=O)c2nc(-c3ccccc3)oc2Cc2ccc(OP(=O)(O)O)cc2)c1`, the pIC50 in [3] was 4.05.

In the case of `C1=Cc2nc1cc1ccc([nH]1)c(-c1ccccc1)c1nc(cc3ccc([nH]3)c2-c2ccccc2)C=C1`, the pIC50 in test [4] is 5.00; in [5], 6.55.

Regarding `Cc1ccc(S(=O)(=O)N(C)CC(=O)N(Cc2ccc(C3CCCCC3)cc2)c2ccc(C(=O)O)c(O)c2)cc1`, the pIC50 in test [6] was below 3.70; in the test on PANC-1, 4.32; in test [9], below 3.70; in the test with NIH3T3 it was below 3.70; in the test on MDA-MB-231, 4.43. Also, in test [7], the pKi was at most 4.30. Also, the pKd in [8] is 5.56.

In the case of `O=C(N/N=C/c1ccc([N+](=O)[O-])o1)c1ccc(O)cc1` [NIFUROXAZIDE], the negative-log EC50 (pEC50) in [10] is 5.52.

As to `O=[N+]([O-])c1ccc2c(c1)S(=O)(=O)C=C2`, the pIC50 in [11] was 5.29.

As to `COc1ccc(/C=C/C(=O)C(C)(C)C(=O)/C=C/c2ccc(OC)c(OC)c2)cc1OC`, the inhibition in test [12] came to 60%.

In the case of `COc1cccc(NC(=O)c2nc(-c3ccccc3)sc2Cc2ccc(OP(=O)(O)O)cc2)c1`, in test [3], the pIC50 was 4.55.

On to `CCCCCCNC(=O)c1nc(-c2cccc3ccccc23)sc1Cc1ccc(OP(=O)(O)O)cc1`, for which the pIC50 in test [3] was 4.60.

For `O=C(O)c1ccc(/C=C/C(=O)c2ccc3c(c2)OCCO3)cc1`, the figures for the pIC50 in test [13] and in test [14] were 3.35 and 4.04, respectively.

As to `Cc1ccc(S(=O)(=O)OCC(=O)Nc2ccc(C(=O)O)c(O)c2)cc1`, the growth inhibition (GI) in test [15] was 80%; in [16], 20%. The inhibition of growth at 250 µM came to 80% in the test with SNU-398; 80% in the test with Huh-7; 20% with SNU-449; 20% in the test on HepG2; 80% in the test with SNU-475.

For `CCCCCCNC(=O)c1nc(-c2cccc3ccccc23)oc1Cc1ccc(OP(=O)(O)O)cc1`, the pIC50 in [3] was 4.24.

In the case of `O=C(Nc1ccc(C2CCCCC2)cc1)c1nc(-c2ccccc2)oc1Cc1ccc(OP(=O)(O)O)cc1`, the negative logarithm of the IC50 (pIC50) in test [3] was 4.48.

For `Cc1ccc(S(=O)(=O)OCC(=O)N(Cc2ccc(C3CCCCC3)cc2)c2ccc(C(=O)O)c(O)c2)cc1`, in test [17], the pKi is 4.30.

`Cc1ccc(S(=O)(=O)N(C)CC(=O)N(Cc2ccc(C3CCN(c4ccc(C#N)cc4)CC3)cc2)c2ccc(C(=O)O)c(O)c2)cc1`: the negative-log Ki (pKi) in [17] was 4.73.

For the origin of these results see ChEMBL document CHEMBL2169778, “Small molecule inhibitors of signal transducer and activator of transcription 3 (Stat3) protein” (J Med Chem, 2012).
